Assay results taken from the METLIN SMRT retention time set (Domingo-Almenara et al. 2019).

Experiment: gradient 5% acetonitrile 3 min, to 50% in 2 min, to 85% in 15 min, held 3 min, 100 µL/min
Conditions: column: Zorbax Extend-C18 2.1 x 50 mm; eluents: water / acetonitrile, 0.1% formic acid
In short: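 Retention times come from adduct peaks that were picked computationally and then checked by hand. The standards, pure and pooled in mixtures of ~100 molecules, were run on a Zorbax Extend-C18 column (2.1 × 50 mm, 1.8 μm) at 100 μL/min with water and acetonitrile, each with 0.1% formic acid. Detection was by quadrupole time-of-flight mass spectrometry in positive and negative ionization mode, with a dead volume of 40 μL and a dwell volume of 900 μL.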

RP-LC retention time [s] | Compound
845 | CCC(=O)Oc1cccc(N2C(=O)c3cccc([N+](=O)[O-])c3C2=O)c1
718 | O=C(NC1CCN(c2cc(-c3cccs3)[nH]n2)C1)c1ccc(F)cc1F (stereo not given)
709 | CCc1ccc(C2=C(C)C(N3CCCN(C(=O)c4ccncc4)CC3)=NS2(=O)=O)cc1
821 | COc1cccc(CNC(=O)NCCC2CCN(S(=O)(=O)c3ccccc3)CC2)c1
857 | COc1cc(-c2noc(Cn3cnc4c(oc5ccccc54)c3=O)n2)cc(OC)c1OC
805 | Cn1nc(-c2nc(C3CC3)no2)c2c1CCN(C(=O)c1ccccc1F)C2
792 | O=C(CCn1cnc2cc(-c3noc(/C=C/c4ccccc4)n3)ccc21)N1CCCC1
695 | O=C(NCCS(=O)(=O)N1CCc2ccccc2C1)C1CC1
597 | CN1C(=O)N(C)C2(CCN(C(=O)c3ccco3)CC2)C1=O
688 | COc1ccc(NC(=O)CCS(=O)(=O)Cc2ccccc2)c2ccccc12
564 | COc1ccc(Cl)cc1NC(=O)NCCN1CCN(S(C)(=O)=O)CC1
943 | Cc1ccc(CNC(=O)C2(c3ccc(NS(C)(=O)=O)cc3)CCCCC2)cc1
702 | O=C(NCc1ccc(F)cc1)C(=O)NCC1OCCN1C(=O)c1cccs1 (stereo not given)
586 | Cn1nc(C(=O)N2CCCC2)c2c1CCN(C(=O)CCC(=O)NCCN1CCCCCC1)C2
645 | Cc1noc(CNC(=O)C2CCN(C(=O)CSc3ccc(F)cc3)CC2)n1
895 | CCS(=O)(=O)N1CC(=O)N(c2cccc(Cl)c2)C(C)(C(=O)NC2CCCCCC2)C1 (stereo not given)
624 | COC(=O)c1sccc1S(=O)(=O)N1CCN(c2ccccn2)CC1
671 | CCCCS(=O)(=O)N1CCC2(CC1)C(=O)N(C)C(=O)N2C
748 | O=C1[C@H]2CN(Cc3ccc(F)cc3)C[C@H]2C(=O)N1CCc1ccccc1
774 | CC(C)CNC(=O)c1ccc2c(c1)CCCN2S(C)(=O)=O
755 | Cc1ccc(CN2CCN(CC(C)C(=O)NCc3ccc(F)cc3F)C(=O)C2=O)cc1 (stereo not given)
610 | CC(=O)N[C@@H]1CN(C(=O)Cc2ccccc2Br)C[C@H]1CO

RP-LC retention time [s] | Compound
808 | O=c1c(S(=O)(=O)N2CCCC2)cccn1Cc1nc(-c2ccccc2Cl)no1
824 | O=C(Nc1ccc2c(c1)N(C(=O)c1cccs1)CC2)c1ccccn1
690 | O=C(NCCc1c[nH]c2ccccc12)C1CCCN1c1nnc(N2CCCC2=O)s1 (stereo not given)
995 | O=C(NCc1ccccc1F)c1ccc(NC(=O)C2CC2)cc1N1CCOCC1
740 | CC(C)n1nc(CNC(=O)CNC(=O)c2ccccc2)c2ccccc21
640 | Cc1noc(C)c1CC(=O)NCCn1ncc2c(=O)n(Cc3ccc(F)cc3)cnc21
1200 | Cc1c(Cl)cccc1NC(=O)C1CCCN(c2nc3c(s2)c(C)nn3-c2cccc(F)c2)C1 (stereo not given)
658 | Cc1ccccc1NC(=O)NCC1CCOCC1
1020 | CCCCc1ccc(NC(=O)C2CCN(C(=O)C(C)(C)C)CC2)cc1
805 | COc1cc(-n2c(=O)c3ccccc3n(Cc3ccccc3C#N)c2=O)cc(OC)c1OC
789 | CSc1cccc(NC(=O)N2CCC(CC(=O)N3CCCCC3)CC2)c1
669 | O=C(Cn1ncc2c(N3CCN(c4ccccn4)CC3)ncnc21)Nc1ccc(C(F)(F)F)cc1
890 | Cc1ccccc1NC(=O)c1sc(-c2cn(C)c3ncccc23)nc1C
682 | Cc1ncc2c(n1)CCCN(CC(=O)NC1CCCCCC1)C2=O
755 | Cc1ccc2c(NCc3ccccc3)c(-c3nc(C4CC4)no3)cnc2n1
738 | CC(C)(C)c1ccc(C(=O)N2CCN=C2N2CCCC2)cc1
974 | Cc1cc(C)n(Cc2nc(-c3ccc(NC(=O)COc4ccccc4)cc3)oc2C)n1
794 | Cc1ccc(CN2CCN(CC(=O)NCCCc3ccccc3)C(=O)C2=O)cc1
669 | O=C1CCCCC(C(=O)Nc2ccc3c(c2)OCCO3)N1 (stereo not given)
900 | CCCN1C(=O)COc2ccc(-c3noc(C(C)NC(=O)c4ccccc4)n3)cc21 (stereo not given)
754 | COc1cccc(-n2cc(C(=O)OCc3cccnc3)c3ccccc3c2=O)c1
1050 | Cc1nc(-c2cn(C(C)C)c3ncccc23)sc1C(=O)N(C)Cc1ccccc1

RP-LC retention time [s] | Compound
814 | Cc1cc2nc(C)c(=O)n(CC(=O)NCCc3c[nH]c4ccccc34)c2cc1C
1140 | Cc1sc(-c2noc(C(C)C)n2)cc1S(=O)(=O)N1CCC(C(=O)NC2CCCCCC2)CC1
1270 | COc1ccc(-n2ncc3c(=O)n(Cc4nc(-c5ccc(C(C)(C)C)cc5)no4)cnc32)cc1
629 | Cc1cc(N2CCN(C(=O)COc3ccc(Cl)cc3)CC2)nc2nncn12
1090 | c1ccc2c(c1)OCC(c1nc(-c3ccc(-n4cccn4)nc3)no1)O2 (stereo not given)
677 | Cc1nc(N2CCN(c3ccccn3)CC2)nc2c1C(=O)CC(C)(C)C2
666 | Cc1nc(-c2cc3ccccc3nc2N2CCN(c3ccccc3)CC2)no1
1080 | Cc1ccc(-c2noc(-c3nn(CC(=O)NC(C)C)c4ccccc34)n2)cc1
630 | Cc1c2c(cc3c1[nH]c1ccccc13)C=NCC2
634 | CCOC(=O)c1ccc(NC(=O)N(C)Cc2nc3cc(C(=O)N(C)C)ccc3n2C)cc1
718 | CN(CC1CCOC1)C(=O)c1cccc(Br)c1 (stereo not given)
1010 | CCCn1cc(C2=CCN(C(=O)Nc3ccc(C)c(C)c3)CC2)c2cccnc21
809 | Cc1ccn(-c2ccc(Nc3ccc(NC(=O)c4ccccc4C(F)(F)F)cc3)nn2)n1
546 | Cc1nn(-c2ccc(N3CCCC3)nn2)c(C)c1CCC(=O)N1CCN(c2ccccn2)CC1
686 | O=C(Cn1nc2n(c1=O)CCCC2)Nc1cccc(Br)c1
957 | CCn1cc(-c2nc(-c3cc(OC)cc(OC)c3)no2)c(=O)c2cc(F)c(N3CCOCC3)cc21
1020 | O=C1CC(c2ccccc2)Cc2[nH]c(=O)c(C(=O)Nc3cccc(C(F)(F)F)c3)cc21 (stereo not given)
645 | Cn1nc(CNC(=O)C2CC(=O)N(C3CCCCC3)C2)c2c1CCN(S(C)(=O)=O)C2 (stereo not given)
878 | O=C(Nc1ccc2c(c1)OCCO2)N1CCCCC1c1nc(CCOCC2CC2)no1 (stereo not given)
805 | C=CCn1ccc2c(OCC(=O)Nc3ccc4c(c3)OCO4)cccc2c1=O
694 | Cc1cc(N2CCCC2)nc(N2CCN(C(=O)CC3CCCC3)CC2)n1
755 | CC(C)c1cccc(NC(=O)C2CCc3nc(N4CCOCC4)ncc3C2)c1 (stereo not given)

RP-LC retention time [s] | Compound
841 | Cc1noc(-c2ccnc(-n3ncc(C(=O)N4CCCCC4)c3C)c2)n1
594 | O=C(CCc1c[nH]c2ccccc12)N1CCC(c2nc3ccccc3[nH]2)CC1
584 | CCN1CCC2(CC1)N=C(c1ccccc1)CC(c1cccc(OC)c1O)N2 (stereo not given)
656 | O=C(CCC1CCN(c2cc(NC3CC3)ncn2)CC1)NCCc1cccs1
570 | Cc1cccc2c(C(N)=O)cc(N3CCCC3)nc12
609 | COc1ccc(C(CC(=O)NCCN2CCCC2)N2Cc3ccccc3C2=O)cc1OC (stereo not given)
691 | O=S(=O)(c1ccc(F)cc1)N1CCC2(CC1)NCCN=C2NCc1cccc(F)c1
725 | CCn1ccc(C(=O)N2CCC3(CC2)C(=O)N(C)c2ccccc23)n1
945 | Cc1cc(=O)n(CC(=O)NCc2ccc3c(c2)OCO3)c(N2CCCCC2)n1
831 | O=C(Nc1nnc(Cc2cccs2)o1)c1cc(Cl)sc1Cl
1040 | COc1cc(NC(=O)C2CCN(c3nccnc3Sc3ccccc3)CC2)cc(OC)c1
860 | Cc1ccc(C)c(N2CCN(C(=O)c3ccc(Cn4cncn4)cc3)CC2)c1
700 | COc1ccc(NC(=O)N2CCC3(CC2)NC(=O)c2ccccc2N3C)cc1
795 | CCOC(=O)c1ccc(Nc2c(-c3ccc(N4CCOCC4)cc3)nc3cnccn23)cc1
1040 | Cc1sc(NC(=O)c2cccc(Cl)c2)nc1-c1ccc2c(c1)NC(=O)C(C)O2 (stereo not given)
750 | O=C(O)c1nnn(-c2ccc3c(c2)CCC3)c1-c1ccccn1
690 | CCNC(=O)NC1CCN(c2ccc(C)c(C)c2)C1=O (stereo not given)
677 | Cc1ccc(-c2noc(CCN3CCN(c4ncccn4)CC3)n2)cc1
710 | Cc1cc2[nH]c(C(=O)Nc3ccc(F)cc3F)c(CN3CCOCC3)c2s1
675 | CC(=O)Nc1ccc(SCC(=O)N(C(C)C)C(C)C)nn1
850 | CC(CCc1ccccc1)NC(=O)Cc1csc2nc(-c3ccccc3)cn12 (stereo not given)
676 | CCNc1cc(N2CCC(CCC(=O)NCc3ccc(C)cc3)CC2)ncn1

Compound | RP-LC retention time [s]
COC(=O)c1ccc(OC(=O)N(C)c2ccccc2)cc1 | 879
COc1ccc2c(c1)C1(CCN(S(=O)(=O)c3ccc(NC(C)=O)cc3)C1)C(=O)N2 (stereo not given) | 686
